These results are taken from ChEMBL document CHEMBL1201862, “PubChem BioAssay data set” (2004).

Active and inactive are the calls of the source.

Assay [1] can be described thus: M. tuberculosis H37Rv growth inhibitors, H37Rv strain (AID 1626). It counts as functional.
A further assay deals with Ephrin type-A receptor 4 (Mus musculus, UniProt Q03137). The assay is described as follows: EphA4 ligand-binding antagonists – biochemical, colorimetric, mouse EphA4, primary screen (AID 689). It counts as functional.
A short description of assay [2]: viability loss in THP-1 monocytes – THP-1 cells, cytotoxicity control for Vif-APOBEC3G degradation inhibitor project, dose response (AID 1117359). It counts as functional. The settings on record: THP-1.
Assay [3] addresses T1, Microphthalmia-associated transcription factor (Homo sapiens, UniProt O75030).
T1 sequence (O75030 whole entry): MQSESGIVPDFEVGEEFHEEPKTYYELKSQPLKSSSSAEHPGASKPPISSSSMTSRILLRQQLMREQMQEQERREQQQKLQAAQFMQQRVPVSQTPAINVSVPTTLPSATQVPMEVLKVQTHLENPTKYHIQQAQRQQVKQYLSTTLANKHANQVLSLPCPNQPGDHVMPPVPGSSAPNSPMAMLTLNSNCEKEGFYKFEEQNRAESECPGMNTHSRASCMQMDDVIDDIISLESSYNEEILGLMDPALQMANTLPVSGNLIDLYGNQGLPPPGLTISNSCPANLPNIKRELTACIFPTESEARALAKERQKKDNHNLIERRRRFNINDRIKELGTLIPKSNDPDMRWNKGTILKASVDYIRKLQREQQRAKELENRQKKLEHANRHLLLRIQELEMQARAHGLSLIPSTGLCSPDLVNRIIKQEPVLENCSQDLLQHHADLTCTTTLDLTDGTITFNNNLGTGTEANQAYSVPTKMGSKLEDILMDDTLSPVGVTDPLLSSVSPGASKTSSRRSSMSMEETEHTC
The assay is described as follows: reducers of TRPM1 reporter luminescence, concentration series – cell-based, SK-MEL-5, cherry-picked, set 3, MITF inhibitor project, dose response (AID 493073).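 Also: SK-MEL-5 melanoma cells with luciferase driven by the MITF target TRPM1 promoter.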 Format: functional.

The test system of assay [4] is Streptococcus sp. 'group A'. Briefly: Streptococcus pyogenes SK(-)GAS viability under kanamycin – luminescence, BacTiterGlo, confirmation, counter-screen for streptokinase expression inhibitor project, dose response (AID 1900). It counts as functional, organism-based.
Assay [5] is described as follows: Luminescence-based counterscreen assay for KLF5 inhibitors: dose response cell-based high throughput screening assay to identify cytotoxic compounds using the IEC-6 intestinal epithelial cell line. [Related pubchem assays: 1700 (Primary screen.), 1834 (Confirmation screen.), 1858 (Summary AID.), 1905 (Counterscreen.)]. It counts as functional.
The nature of assay [6]: NIH3T3 cell viability loss – ATP luminescence, mouse fibroblasts, counter-screen, dose response (AID 2010).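 Also: cells exposed to compound for about 90 hours before reading.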 It counts as functional, cell-based. On the technique in general: Counterscreens check selectivity or assay interference.
A short description of assay [7]: cells. Format: functional, cell-based.
Assay [8] is described as follows: Trypanosoma cruzi growth suppression in host cells – NIH3T3 host cells, beta-gal luminescence, confirmation (AID 2044).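 Also: intracellular parasites grown in NIH/3T3 mouse fibroblasts as host cells; luminescent beta-galactosidase reporter signal from transgenic T. cruzi replicating inside host cells; inhibitors lower the luminescence signal.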 Format: functional, cell-based.
Assay [9] can be described thus: cells. Format: functional, cell-based. This is another data set of the same source.
For a further assay, the system named is INS1. The assay is described as follows: INS-1E survival protection against cytokine death – cell-based, luminescence, retest, dose response (AID 449756).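 Also: cell death triggered by IL-1 beta plus TNF-alpha plus IFN-gamma mixture; protective hits raise ATP signal compared with cytokine alone wells.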 Format: functional. The note with it: Rattus norvegicus.
The next assay relates to Streptococcus. Briefly: GAS UMAA2166 growth inhibition – luminescence, BacTiterGlo, counter-screen for streptokinase expression inhibitor project, dose response (AID 1915).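 Also: potency for reduction of bacterial viability or growth.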 It counts as functional, organism-based.
For assay [10], the target named is Luciferin 4-monooxygenase (Photinus pyralis, UniProt P08659). Briefly: Counter Screen for Luciferase-based Assay Positives. [Related pubchem assays: 620, 618, 411 ].
A further assay has as its system HT-1080. The assay is described as follows: HT1080 cell viability loss – fluorescence readout (AID 620). Format: functional, cell-based. The note with it: Homo sapiens.
In another assay the target is T2, Estrogen receptor (Homo sapiens, UniProt P03372).
T2 sequence (P03372 whole entry): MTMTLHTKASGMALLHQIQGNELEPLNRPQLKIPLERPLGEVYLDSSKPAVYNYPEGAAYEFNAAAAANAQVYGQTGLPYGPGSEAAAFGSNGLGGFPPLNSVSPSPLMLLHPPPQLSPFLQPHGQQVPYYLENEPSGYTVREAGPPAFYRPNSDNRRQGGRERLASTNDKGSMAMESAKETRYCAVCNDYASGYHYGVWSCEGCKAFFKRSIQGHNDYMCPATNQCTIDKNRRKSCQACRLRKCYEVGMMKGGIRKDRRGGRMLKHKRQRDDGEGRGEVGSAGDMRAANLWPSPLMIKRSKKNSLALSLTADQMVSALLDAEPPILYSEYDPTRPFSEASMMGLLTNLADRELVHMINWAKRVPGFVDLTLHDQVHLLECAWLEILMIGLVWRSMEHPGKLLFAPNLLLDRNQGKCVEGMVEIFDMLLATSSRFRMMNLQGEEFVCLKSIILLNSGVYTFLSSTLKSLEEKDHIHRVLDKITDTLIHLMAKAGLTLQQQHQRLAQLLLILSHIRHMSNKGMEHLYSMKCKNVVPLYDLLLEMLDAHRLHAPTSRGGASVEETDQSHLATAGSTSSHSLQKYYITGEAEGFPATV
Briefly: ERα coactivator recruitment enhancers – biochemical, TR-FRET, ERα LBD, dose response (AID 737).

The next assay has as its target Leucine aminopeptidase (Plasmodium falciparum 3D7, UniProt Q8IL11). Briefly: P. falciparum M17LAP inhibitors, primary screen, biochemical, fluorogenic H-Leu-NHMec substrate, 1536-well (AID 1619). It counts as functional.
The next assay addresses Prothrombin (Homo sapiens, UniProt P00734). The assay is described as follows: Thrombin 1536 HTS Dose Response Confirmation. [Related pubchem assays: 1046 (Thrombin 1536 HTS; hits were confirmed in this assay)]. Format: functional.
Assay [11] in a line: mitochondrial function rescue without frataxin homolog – Friedreich's ataxia, plus single-dose screen, dose response (AID 1465).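 Also: yeast depleted of Yfh1p frataxin homolog grown on glycerol needing respiration; WST-1 tetrazolium dye reduction as measure of cellular dehydrogenase metabolic activity.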 It counts as functional.
The next assay concerns the target Large T antigen (Simian virus 40, UniProt P03070). It counts as functional, Betapolyomavirus macacae.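 Also: Confirmatory-stage PubChem screen for compounds that inhibit SV40 T antigen.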
Assay [12] in a line: Luminescence Cell-Based Dose Confirmation HTS to Identify Inhibitors of Polyadenylation. It counts as functional.
The nature of assay [13]: A549 cell cytotoxicity, dose response, cytotoxicity control, plate reader, cherry-pick, antagonist series (AID 743412). It counts as functional, cell-based.
The nature of assay [14]: blockade of melanocortin 4 receptor signaling – cell-based, plate reader, cherry pick, counter-screen for LGR2 antagonist project, dose response (AID 743444).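 Also: transfected HEK 293 cells stimulated with alpha-MSH peptide; potency of inhibitors of the alpha-MSH evoked signal.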 Format: functional.
Assay [15] can be described thus: toxicity toward HepG2 liver cells – cell-based, plate reader, cherry-pick, antagonist series, cytotoxicity control, dose response (AID 743416). It counts as functional.
The nature of assay [16]: viability loss in HEK293 cells – cell-based, plate reader, cherry-picked samples, cytotoxicity control, dose response (AID 743446). Format: functional.
Assay [17] addresses Polyadenylate-binding protein 1 (Homo sapiens, UniProt P11940). The assay is described as follows: blockers of PABP interaction with poly(A) – biochemical, fluorescence polarization, […] (AID 2014). Background: In fluorescence polarisation assays a small probe gives low polarisation when free and higher when bound to something large.
Assay [18] deals with Eukaryotic translation initiation factor 4H (Homo sapiens, UniProt Q15056). Briefly: eIF4H binding inhibition – biochemical, uHTS, fluorescence polarization, translation initiation inhibitor project, primary screen (AID 2012).
Another assay relates to Vero. Briefly: mammalian cell viability reduction – secondary assay, cytotoxicity control for West Nile virus antiviral project, dose response (AID 1650). Format: functional. The note with it: Chlorocebus sabaeus.
Assay [19] addresses Protein-tyrosine kinase 2-beta (Homo sapiens, UniProt Q14289).
Assay [20] can be described thus: Luminescence Cell-Based Dose Response HTS to Identify Activators of Luciferase Translation or Activity in H4 […] Cells. [Related pubchem assays: 1829 (Project Summary), 1814 (Primary HTS)]. It counts as functional.
The target in assay [21] is T3, Mannose-6-phosphate isomerase (Homo sapiens, UniProt P34949).
T3 sequence (P34949 whole entry): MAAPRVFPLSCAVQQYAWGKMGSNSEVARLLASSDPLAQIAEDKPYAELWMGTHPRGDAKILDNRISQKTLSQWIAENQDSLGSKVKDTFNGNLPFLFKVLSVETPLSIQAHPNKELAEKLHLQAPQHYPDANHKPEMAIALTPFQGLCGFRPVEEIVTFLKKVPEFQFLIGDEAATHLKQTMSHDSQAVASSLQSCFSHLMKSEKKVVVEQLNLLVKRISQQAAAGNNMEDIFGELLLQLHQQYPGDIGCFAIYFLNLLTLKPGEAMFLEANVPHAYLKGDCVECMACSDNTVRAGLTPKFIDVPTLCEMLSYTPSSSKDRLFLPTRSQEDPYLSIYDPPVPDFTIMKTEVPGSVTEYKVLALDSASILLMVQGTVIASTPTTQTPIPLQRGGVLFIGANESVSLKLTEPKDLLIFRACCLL
Briefly: MPI enzyme activity inhibition – biochemical, fluorescence intensity, coupled assay, primary screen (AID 1209).

Assay [22] can be described thus: Luminescence Cell-Based Dose Confirmation HTS to Identify Activators of 5'UTR Stem-Loop Driven Alpha-Synuclein mRNA Translation in H4 Neuroglioblastoma Cells. [Related pubchem assays: 1829 (Project Summary), 1814 (Primary HTS)]. Format: functional.
A further assay concerns H4. Briefly: Luminescence Cell-Based Dose Response HTS to Identify Activators of 5'UTR Stem-Loop Driven Prion Protein mRNA Translation in H4 Neuroglioblastoma Cells. [Related pubchem assays: 1829 (Project Summary), 1814 (Primary HTS)]. Format: functional. The note with it: Homo sapiens.

Leucine aminopeptidase, sequence (Q8IL11 whole entry): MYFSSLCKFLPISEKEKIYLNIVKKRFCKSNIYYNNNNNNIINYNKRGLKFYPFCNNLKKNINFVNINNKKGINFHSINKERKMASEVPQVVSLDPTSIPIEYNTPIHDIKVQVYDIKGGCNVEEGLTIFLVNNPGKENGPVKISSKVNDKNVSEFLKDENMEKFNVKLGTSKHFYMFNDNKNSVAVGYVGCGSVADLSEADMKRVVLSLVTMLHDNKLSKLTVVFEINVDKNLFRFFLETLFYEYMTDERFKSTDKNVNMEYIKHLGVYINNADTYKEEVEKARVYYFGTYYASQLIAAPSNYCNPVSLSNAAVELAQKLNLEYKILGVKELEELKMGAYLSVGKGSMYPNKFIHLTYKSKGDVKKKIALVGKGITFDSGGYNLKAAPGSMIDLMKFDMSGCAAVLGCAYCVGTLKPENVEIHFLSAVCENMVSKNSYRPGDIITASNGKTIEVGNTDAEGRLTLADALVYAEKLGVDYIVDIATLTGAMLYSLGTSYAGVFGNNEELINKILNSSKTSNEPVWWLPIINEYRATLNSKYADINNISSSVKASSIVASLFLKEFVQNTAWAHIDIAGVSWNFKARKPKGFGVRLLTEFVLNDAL
Polyadenylate-binding protein 1, sequence (P11940 whole entry): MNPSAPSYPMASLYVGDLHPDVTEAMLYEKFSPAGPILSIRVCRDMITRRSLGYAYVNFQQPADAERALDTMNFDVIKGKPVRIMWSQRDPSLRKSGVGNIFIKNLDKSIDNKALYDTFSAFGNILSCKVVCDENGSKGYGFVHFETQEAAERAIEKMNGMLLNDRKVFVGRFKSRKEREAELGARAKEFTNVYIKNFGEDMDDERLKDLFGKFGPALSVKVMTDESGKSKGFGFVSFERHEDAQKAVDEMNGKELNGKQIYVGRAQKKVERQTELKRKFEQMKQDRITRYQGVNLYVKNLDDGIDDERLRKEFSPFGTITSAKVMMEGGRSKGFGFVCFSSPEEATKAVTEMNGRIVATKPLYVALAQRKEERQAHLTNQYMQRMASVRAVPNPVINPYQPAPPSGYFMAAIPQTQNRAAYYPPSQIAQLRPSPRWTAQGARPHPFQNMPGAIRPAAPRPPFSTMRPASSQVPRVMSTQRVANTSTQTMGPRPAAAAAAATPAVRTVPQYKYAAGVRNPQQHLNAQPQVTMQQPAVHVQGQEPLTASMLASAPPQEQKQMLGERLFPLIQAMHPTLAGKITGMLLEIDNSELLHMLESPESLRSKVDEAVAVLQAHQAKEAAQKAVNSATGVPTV
Protein-tyrosine kinase 2-beta, sequence (Q14289 whole entry): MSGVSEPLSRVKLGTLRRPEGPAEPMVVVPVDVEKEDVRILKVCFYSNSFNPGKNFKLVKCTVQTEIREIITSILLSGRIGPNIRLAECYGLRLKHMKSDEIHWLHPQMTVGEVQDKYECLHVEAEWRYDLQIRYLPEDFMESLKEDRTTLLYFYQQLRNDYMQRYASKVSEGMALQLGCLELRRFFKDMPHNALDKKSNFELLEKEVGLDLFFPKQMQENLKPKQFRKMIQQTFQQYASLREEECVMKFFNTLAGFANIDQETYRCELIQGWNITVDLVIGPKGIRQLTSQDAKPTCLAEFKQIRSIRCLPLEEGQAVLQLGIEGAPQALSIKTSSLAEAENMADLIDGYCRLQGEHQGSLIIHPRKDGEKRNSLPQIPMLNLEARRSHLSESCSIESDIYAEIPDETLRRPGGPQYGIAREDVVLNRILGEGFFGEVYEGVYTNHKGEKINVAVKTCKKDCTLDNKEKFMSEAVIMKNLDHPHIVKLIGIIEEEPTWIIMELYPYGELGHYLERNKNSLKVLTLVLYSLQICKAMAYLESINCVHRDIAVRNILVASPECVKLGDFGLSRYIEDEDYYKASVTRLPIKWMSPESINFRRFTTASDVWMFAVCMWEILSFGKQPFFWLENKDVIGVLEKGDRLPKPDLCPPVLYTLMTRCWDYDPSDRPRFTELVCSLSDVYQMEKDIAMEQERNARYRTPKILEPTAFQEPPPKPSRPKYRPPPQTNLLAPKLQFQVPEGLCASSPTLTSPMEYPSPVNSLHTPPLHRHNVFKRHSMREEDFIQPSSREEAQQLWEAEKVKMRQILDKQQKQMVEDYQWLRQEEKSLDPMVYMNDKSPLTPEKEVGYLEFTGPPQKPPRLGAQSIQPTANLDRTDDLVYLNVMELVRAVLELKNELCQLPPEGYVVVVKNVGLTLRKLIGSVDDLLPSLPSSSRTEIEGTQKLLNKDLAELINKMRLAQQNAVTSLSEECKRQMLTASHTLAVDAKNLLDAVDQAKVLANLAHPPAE
Luciferin 4-monooxygenase, sequence (P08659 whole entry): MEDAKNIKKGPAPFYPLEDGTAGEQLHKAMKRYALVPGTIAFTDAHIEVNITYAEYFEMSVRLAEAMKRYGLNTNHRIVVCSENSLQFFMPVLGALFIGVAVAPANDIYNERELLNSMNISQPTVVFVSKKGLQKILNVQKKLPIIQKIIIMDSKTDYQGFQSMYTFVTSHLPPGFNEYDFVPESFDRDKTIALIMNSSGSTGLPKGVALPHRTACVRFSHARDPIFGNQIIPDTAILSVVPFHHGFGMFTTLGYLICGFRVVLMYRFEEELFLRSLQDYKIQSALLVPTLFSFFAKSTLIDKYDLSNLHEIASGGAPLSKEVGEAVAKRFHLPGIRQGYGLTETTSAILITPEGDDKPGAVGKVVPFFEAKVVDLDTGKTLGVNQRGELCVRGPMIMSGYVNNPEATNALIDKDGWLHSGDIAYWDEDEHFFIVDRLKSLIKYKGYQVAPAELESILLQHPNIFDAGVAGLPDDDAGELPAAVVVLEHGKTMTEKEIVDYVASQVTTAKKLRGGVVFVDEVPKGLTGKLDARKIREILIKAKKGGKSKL
Ephrin type-A receptor 4, sequence (Q03137 whole entry): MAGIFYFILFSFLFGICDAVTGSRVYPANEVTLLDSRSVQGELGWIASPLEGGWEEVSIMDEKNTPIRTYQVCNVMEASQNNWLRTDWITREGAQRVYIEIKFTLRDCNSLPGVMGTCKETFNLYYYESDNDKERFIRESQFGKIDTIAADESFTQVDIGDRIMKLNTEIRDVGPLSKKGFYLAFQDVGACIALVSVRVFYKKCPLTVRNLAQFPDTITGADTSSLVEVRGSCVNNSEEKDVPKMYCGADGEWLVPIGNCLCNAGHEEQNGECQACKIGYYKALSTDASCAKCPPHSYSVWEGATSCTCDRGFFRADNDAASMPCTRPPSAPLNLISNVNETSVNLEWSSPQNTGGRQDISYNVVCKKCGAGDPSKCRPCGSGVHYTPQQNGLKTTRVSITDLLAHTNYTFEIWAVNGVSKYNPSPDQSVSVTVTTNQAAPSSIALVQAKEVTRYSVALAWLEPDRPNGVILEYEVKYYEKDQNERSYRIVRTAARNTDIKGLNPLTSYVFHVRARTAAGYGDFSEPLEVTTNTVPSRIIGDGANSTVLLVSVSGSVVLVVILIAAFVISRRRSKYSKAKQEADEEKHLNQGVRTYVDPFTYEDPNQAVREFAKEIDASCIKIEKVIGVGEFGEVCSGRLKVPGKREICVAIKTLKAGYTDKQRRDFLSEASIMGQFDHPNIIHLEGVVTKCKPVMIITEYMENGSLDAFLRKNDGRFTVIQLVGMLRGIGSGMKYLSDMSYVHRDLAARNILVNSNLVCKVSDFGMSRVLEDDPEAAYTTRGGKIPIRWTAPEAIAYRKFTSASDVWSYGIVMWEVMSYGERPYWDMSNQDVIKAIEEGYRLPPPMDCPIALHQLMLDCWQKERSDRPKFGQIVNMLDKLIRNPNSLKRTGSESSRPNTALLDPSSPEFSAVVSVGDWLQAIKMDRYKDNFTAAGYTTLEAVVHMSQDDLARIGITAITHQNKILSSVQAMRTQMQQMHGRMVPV
Large T antigen, sequence (P03070 whole entry): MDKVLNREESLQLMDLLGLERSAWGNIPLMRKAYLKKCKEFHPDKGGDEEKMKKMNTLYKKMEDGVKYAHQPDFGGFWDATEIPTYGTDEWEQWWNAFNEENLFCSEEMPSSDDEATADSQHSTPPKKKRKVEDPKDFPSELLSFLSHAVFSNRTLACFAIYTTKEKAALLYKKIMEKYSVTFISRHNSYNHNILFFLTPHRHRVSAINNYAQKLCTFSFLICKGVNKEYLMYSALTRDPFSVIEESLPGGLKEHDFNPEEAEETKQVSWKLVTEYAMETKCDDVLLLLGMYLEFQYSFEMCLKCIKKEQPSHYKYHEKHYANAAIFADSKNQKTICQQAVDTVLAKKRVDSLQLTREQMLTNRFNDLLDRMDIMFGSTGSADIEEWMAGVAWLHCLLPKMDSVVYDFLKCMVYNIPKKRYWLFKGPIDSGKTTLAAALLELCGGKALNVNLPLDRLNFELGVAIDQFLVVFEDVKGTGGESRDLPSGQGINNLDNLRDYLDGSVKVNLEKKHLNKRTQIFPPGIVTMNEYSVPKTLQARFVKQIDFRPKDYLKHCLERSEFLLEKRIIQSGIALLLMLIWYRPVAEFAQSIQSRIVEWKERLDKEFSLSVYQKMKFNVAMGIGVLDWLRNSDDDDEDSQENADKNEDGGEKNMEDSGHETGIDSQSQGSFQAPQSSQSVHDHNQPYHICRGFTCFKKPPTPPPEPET

Regarding `CC(=O)Nc1ccc(NC(=O)c2ccc(C3SCC(=O)N3CCc3ccccc3)cc2)cc1` (stereo not drawn), the IC50 (in general, the concentration that gives 50% inhibition) in [1] was > 100 µM (active).

For `CCOC(=O)C1=C(C)N=c2s/c(=C/c3ccco3)c(=O)n2C1c1cccc(OC)c1` (stereo not drawn), the IC50 at Ephrin type-A receptor 4 is reported as > 100 µM (not active). Moreover, the CC50 (in general, the concentration that lowers cell viability or growth by half) in assay [2] is > 40 µM (active).

For `COc1ccc(C(=O)N/N=C/c2cc(Br)ccc2O)cc1OC`, the AC50 (in general, the midpoint of the concentration-response curve, whichever way the signal moves) in [3] is 4.76 µM (active); in the assay on INS1 it was 1.97 µM (active). The EC50 – broadly, the concentration that produces a half-maximal response – in assay [4] is 0.959 µM (active); in [6], > 60 µM (not active); in the assay “cells [7]”, > 350 µM (not active); in [8] it was 3.76 µM (active); in the assay “cells [9]” it was 11.3 µM (active); with Streptococcus, 5.78 µM (active). Besides, the IC50 in assay [5] was 12.2 µM (not active).

Turning to `CCCOc1ccc(-c2nnc(-c3cccs3)o2)cc1`, the figures for the EC50 (in assay [10]; with HT-1080) were 7.29 µM (active) and > 50 µM (not active), respectively.

Take `Cc1nn(-c2ccccc2)c2sc(C(=O)c3c(N)n(C)c(=O)n(C)c3=O)cc12`: at Estrogen receptor, the half-maximal effective concentration (EC50) is 12.6 µM (active).

For `COc1ccc2oc(C)c(C(=O)NN)c2c1`, the IC50 at Leucine aminopeptidase was 26.6 µM (active).

In the case of `CSc1nc(-c2ccccc2)nn1C(=O)c1ccco1`, the IC50 at Prothrombin is 0.3 µM (active).

Turning to `N#C/C(=C\c1ccc(N2CCOCC2)o1)C(=O)Nc1ccc(O)cc1`, in assay [11], the 50% effective concentration (EC50) is > 100 µM (active). In addition, the IC50 on Large T antigen is 15.2 µM (active).

As for `COC(=O)c1cc(C(=O)N2CCN(c3cccc(C)c3C)CC2)cc([N+](=O)[O-])c1`, in assay [12], the EC50 was > 120 µM (not active).

On to `Cn1c(=O)c(C(=O)NNC(=O)c2ccccc2Cl)c(O)c2ccccc21`, for which, in assay [12], the EC50 is > 120 µM (not active).

In the case of `Cc1ccc2c(c1)C1CN(C)CCC1N2C(=O)c1cn(-c2ccccc2)nc1-c1ccccc1` (stereo not drawn), the AC50 is 36.4 µM (active) in assay [13], 55.6 µM (active) in assay [14], > 52 µM (inactive) in [15] and 35.3 µM (active) in assay [16]. On Prothrombin, the IC50 is 3.04 µM (active).

Consider `CCn1/c(=N/C(=O)c2ccc(N3C(=O)CCC3=O)cc2)sc2c(OC)ccc(OC)c21`, for which the IC50 is > 100 µM (inactive) in assay [17] and 14.7 µM (active) in [18]. The EC50 at Estrogen receptor is 7.94 µM (active).

Consider `Cn1c(=O)[nH]c(=O)c2c1nc(N1CCN(C(c3ccccc3)c3ccccc3)CC1)n2CCO`, for which the half-maximal activity concentration (AC50) in the assay with INS1 is 6.24 µM (active). Further, the CC50 in the assay on Vero is 14.5 µM (active).

Consider `COCCN(Cc1ccccc1)P(=O)(O)c1ccccc1OCC(=O)O`, for which, in assay [19], the IC50 was 7.64 µM (active).

Consider `Cc1cc(N=C(S)Nc2ccc(C)c(Cl)c2)[nH]n1`, for which the EC50 in assay [20] is 76.2 µM (active); in [22] it was 8.11 µM (active); with H4, 14.8 µM (active). The IC50 in assay [21] is > 50 µM (not active).

With `Nc1[nH]ncc1-c1ccc(Cl)cc1`, on Leucine aminopeptidase, the IC50 was 38.2 µM (active).

As for `CC(=O)Nc1ccc(Nc2cc(C)nc3c(-c4ccccc4)c(C)nn23)cc1`, the IC50 in assay [1] was > 100 µM (active).
